Assay [1] addresses T1, recombinant mouse PRSS2 (Mus musculus, UniProt P07146).
T1 construct: purchased Sino Biological, Inc. 50383-M08H
T1 sequence (P07146 24-246): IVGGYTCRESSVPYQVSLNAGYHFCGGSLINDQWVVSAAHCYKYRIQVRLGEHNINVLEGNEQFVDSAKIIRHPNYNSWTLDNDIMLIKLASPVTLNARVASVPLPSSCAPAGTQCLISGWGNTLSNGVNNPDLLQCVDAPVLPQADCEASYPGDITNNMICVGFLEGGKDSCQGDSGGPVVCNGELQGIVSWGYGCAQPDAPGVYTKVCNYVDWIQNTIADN
Description: Trypsin decomposition in vitro by bacteria (western blot). It is filed as biochemical. Particulars: for trypsin-decomposing ability of P. clara (1C4) after pretreating rmPRSS2 with protease inhibitor: rmPRSS2 pretreated 30 minutes with inhibitor; for decomposition of rmPRSS2 (western blot): bacteria or culture supernatant incubated with recombinant mouse trypsin. Here is the method:
Mouse faecal samples were suspended and diluted 50-fold with phosphate buffered saline (PBS) to which a protease inhibitor cocktail (Roche) was added. Subsequently, the suspended sample was centrifuged at 15,000×g for 10 minutes at 4° C., and the supernatant was subjected to western blot. Mouse pancreatic tissue was rapidly frozen in liquid nitrogen. Proteins were extracted by TRIzol Reagent (Thermo Fisher Scientific K.K.), and the final protein concentration was adjusted to 4 μg/μL. For SDS-PAGE and blotting, Novex (registered trademark) NuPAGE (registered trademark) SDS-PAGE Gel system (Thermo Fisher Scientific K.K.) and iBlot™ 2 Dry Blotting System (Thermo Fisher Scientific K.K.) were used according to the manufacturer's instructions.
The bacteria cultured overnight were incubated with recombinant mouse trypsin (final concentration: 1 μg/mL) for 1 hour or with human trypsin (final concentration: 20 μg/mL) for 4 hours. Recombinant trypsin isoforms used were as follows: recombinant mouse PRSS2 (50383-M08H, Sino Biological, Inc.), recombinant human PRSS1 (LS-G135640), recombinant human PRSS2 (LS-G20167), and recombinant human PRSS3 (His-tag) (NBP2-52220).
In some experiments, recombinant mouse PRSS2 was first treated with one of the following trypsin inhibitors for 30 minutes before incubation with a P. clara culture solution. AEBSF (Sigma-Aldrich, final concentration: 2 mM), Leupeptin (Sigma-Aldrich, final concentration: 100 μM), and TLCK (Abcam plc., final concentration: 100 μM).
In some experiments, P. clara was cultured overnight in the presence of Tunicamycin (Sigma-Aldrich, final concentration: 10 μg/mL), 2-Fluoro-L-fucose (Cayman Chemical Company, final concentration: 250 μM), or the corresponding DMSO control, before incubation with recombinant mouse PRSS2.
In the experiment of evaluating the effect of Ca^2+, P. clara was cultured in a low Ca^2+ mGAM medium supplemented with or without 1 mM of Ca^2+, before incubation with recombinant mouse PRSS2. In the experiment in which the supernatant of P. clara was used, P. clara cultured overnight was filtered through a sterilization filter unit formed using a PVDF film having a pore size of 0.22 μm.
A general note: A western blot detects proteins with antibodies after separation by electrophoresis.

For assay [2], the system named is trypsin. Description: Faecal trypsin activity of GF mice colonized by human microbiota, isolated strain mixtures or P. clara strains. The class given is in vivo, mouse. The note with it: GF+C#5 mice, antibiotic via drinking. Here is the method:
Mouse intestinal contents or a mice faecal sample was diluted 500-fold (w/v) with a 0.9% NaCl solution. Human faeces were diluted 200-fold (w/v) with a 0.9% NaCl solution. The diluted solution was vortexed in a mini shaker for 20 minutes at 2,000 rpm, homogenized by pipetting, and then centrifuged at 10,000×g for 15 minutes at 4° C. Subsequently, the supernatant was recovered to measure the trypsin activity by a Trypsin Activity Assay Kit (Colorimetric) for 100 tests (ab102531) according to the manufacturer's protocol. The absorbance at 405 nm was measured in a kinetic mode by using a PerkinElmer 2030 Multilabel Reader.
Human faecal samples were collected at RIKEN and Keio University according to a research protocol approved by the Research Ethics Review Committee. Informed consent was obtained from each subject. A human faecal sample (preserved in 20% (v/v) glycerol) was transferred to an anaerobic chamber, thawed, and then sieved with a 100 μm mesh, transferred to a GF isolator, and orally administered to GF mice by 200 μL/mouse.
For an antibiotic treatment, each solution of 0.5 g/L ampicillin (Nacalai Tesque, Inc.), 0.5 g/L metronidazole (Nacalai Tesque, Inc.), and 1.0 g/L tylosin (Sigma-Aldrich) was produced with autoclaved tap water. The antibiotic solution was given, for 12 days, to mice to which the faecal contents derived from a donor C were orally administered. The antibiotic solution was changed once a week.
The isolated strains except for Phasolactobacterium faecium (3G4) were cultured in an anaerobic chamber at a temperature of 37° C. for 1 to 2 days. Phasolactobacterium faecium was cultured for 2 to 3 days in an Oxoid CM0619 agar plate to which 80 mM sodium succinate was added. The colonies were recovered and resuspended in EGEF. The bacterial density was adjusted based on an OD600 value, and the mixture of the cultured strains was orally administered to GF mice (150 μL/mouse, total bacterial count: about 1 to 2×10^8 CFU).

Assay [3] concerns IgA heavy chain. Description: Ex vivo incubation of mouse faeces at 37° C. for 48 hours, western blot. Particulars: GF faeces mixed with 2-mix+WT faeces, trypsin inhibitor added. The protocol: Mouse faecal samples were suspended and diluted 50-fold with phosphate buffered saline (PBS) to which a protease inhibitor cocktail (Roche) was added. Subsequently, the suspended sample was centrifuged at 15,000×g for 10 minutes at 4° C., and the supernatant was subjected to western blot. Mouse pancreatic tissue was rapidly frozen in liquid nitrogen. Proteins were extracted by TRIzol Reagent (Thermo Fisher Scientific K.K.), and the final protein concentration was adjusted to 4 μg/μL. For SDS-PAGE and blotting, Novex (registered trademark) NuPAGE (registered trademark) SDS-PAGE Gel system (Thermo Fisher Scientific K.K.) and iBlotTM 2 Dry Blotting System (Thermo Fisher Scientific K.K.) were used according to the manufacturer's instructions. The antibodies used are as follows. A rabbit anti-mouse PRSS2 antibody (Cosmo Bio Co., Ltd.), a rabbit anti-mouse HSP90 antibody (#4877, Cell Signaling Technology, Inc.), a rabbit anti-human PRSS2 antibody (LS-B15726, LSBio), a rabbit anti-human PRSS1 antibody (LS-331381, LSBio), a rabbit anti-mouse TMPRSS2 antibody (LS-C373022, LSBio, against the sequence of the protease domain), a rabbit anti-6-His antibody ([…]-[…], Bethyl Laboratories, Inc.), a goat anti-mouse IgA a chain antibody (HRP) (ab97235, Abcam plc.), a rat anti-mouse κ chain antibody (HRP) (ab99632, Abcam plc.), a rabbit anti-mouse CELA3b antibody (OACD03205, Aviva Systems Biology Corporation), an anti-rabbit IgG antibody (HRP) (#7074, Cell Signaling Technology, Inc.), and a rabbit anti-mouse Reg3 antibody (51153-[…], Sino Biological, Inc.).

The target in assay [4] is T1, recombinant mouse PRSS2. Briefly: Binding of Alexa Fluor 488-labeled rmPRSS2 to the surface of bacteria (confocal microscope). Here is the method: Recombinant mouse PRSS2 was labeled with Alexa Fluor™ 488 using an Alexa Fluor™ 488 Antibody Labeling Kit (Δ20181, Thermo Fisher Scientific K.K.), and was pretreated with an AEBSF inhibitor (150 μg/mL rmPRSS2 with 20 mM AEBSF).
Mouse PRSS2 labeled with Alexa Fluor™ 488 was incubated in an anaerobic chamber for 20 minutes with bacteria cultured at a final concentration of 5 μg/mL. The mixture was centrifuged, washed once with PBS, and then resuspended in PBS. A Leica TCS SP8 confocal microscope was used for capturing a confocal image.

Regarding `NCCc1ccc(S(=O)(=O)F)cc1` [AEBSF, reference compound], in assay [1], the “trypsin-decomposing ability of P. clara (1C4) after pretreating rmPRSS2 with protease inhibitor” value was “lost”.
Turning to `CC1(C)S[C@@H]2[C@H](NC(=O)[C@H](N)c3ccccc3)C(=O)N2[C@H]1C(=O)O` [Amp, Ampicillin], in assay [2], the faecal trypsin activity result was “more decreased”.
`Cc1ncc([N+](=O)[O-])n1CCO` [MNZ, metronidazole]: in assay [2], the faecal trypsin activity entry is “no decrease”.
For the compound `Cc1ccc(S(=O)(=O)N[C@@H](CCCCN)C(=O)CCl)cc1` [TLCK, reference compound], the “decomposition of IgA heavy chain in mixed faeces” value in assay [3] is reported as “inhibited the decomposition of the IgA heavy chain”. Further, in assay [1], the “trypsin-decomposing ability of P. clara (1C4) after pretreating rmPRSS2 with protease inhibitor” value is given as “lost”.
Take `CC[C@H]1OC(=O)C[C@@H](O)[C@H](C)[C@@H](O[C@@H]2O[C@H](C)[C@@H](O[C@H]3C[C@@](C)(O)[C@@H](O)[C@H](C)O3)[C@H](N(C)C)[C@H]2O)[C@@H](CC=O)C[C@@H](C)C(=O)/C=C/C(C)=C/[C@@H]1CO[C@@H]1O[C@H](C)[C@@H](O)[C@@H](OC)[C@H]1OC` [Tyl, tylosin]: the faecal trypsin activity entry in assay [2] is on record as “no decrease”.
For the compound `CC(=O)N[C@@H](CC(C)C)C(=O)N[C@@H](CC(C)C)C(=O)N[C@H](C=O)CCCNC(=N)N` [leupeptin, reference compound], the “trypsin-decomposing ability of P. clara (1C4) after pretreating rmPRSS2 with protease inhibitor” value in assay [1] was “lost”.
As to Paraprevotella clara [P237E3b], the “decomposition of rmPRSS2 (western blot)” value in assay [1] is “effect of reducing trypsin”.
For the compound Paraprevotella clara [P322B5], in assay [1], the “decomposition of rmPRSS2 (western blot)” value is recorded as “effect of reducing trypsin”.
For “Paraprevotella xylaniphila [P. xylaniphila (JCM 14860) strain]”, in assay [1], the “decomposition of rmPRSS2 (western blot)” value is given as “potent trypsin-reducing ability”.
The same measure, in the same setting: then Prevotella copri [reference compound], with “did not decrease the trypsin activity”.
Take “Prevotella denticola [reference compound]”: in assay [4], the “binding of rmPRSS2 to the surface of bacteria” value is given as “no accumulation of trypsin was observed”. For the same compound, the “decomposition of rmPRSS2 (western blot)” value in assay [1] was “did not decrease the trypsin activity”.
For “Prevotella muris [Prevotella muris strain]”, the “decomposition of rmPRSS2 (western blot)” value in assay [1] was “had a trypsin-decomposing activity”.
For Prevotella oulorum [reference compound], the “binding of rmPRSS2 to the surface of bacteria” value in assay [4] is on record as “no accumulation of trypsin was observed”. In addition, in assay [1], the “decomposition of rmPRSS2 (western blot)” value is recorded as “did not decrease the trypsin activity”.
Regarding “Prevotella rara [Prevotella rara (MSP 0081) strain]”, in assay [1], the “decomposition of rmPRSS2 (western blot)” value is recorded as “had a trypsin-decomposing activity”.
As for “Prevotella rodentium [Prevotella rodentium strain]”, in assay [1], the “decomposition of rmPRSS2 (western blot)” value is given as “had a trypsin-decomposing activity”.
For the compound “Prevotella stercorea [reference compound]”, the “decomposition of rmPRSS2 (western blot)” value in assay [1] is given as “did not decrease the trypsin activity”.
For tunicamycin [reference compound], the “binding of rmPRSS2 to the surface of P. clara treated with sugar chain synthesis inhibitor” value in assay [4] is reported as “no accumulation of trypsin on the surface”. The “decomposition of rmPRSS2 by P. clara pretreated with sugar chain synthesis inhibitor” value in assay [1] (P. clara cultured overnight with inhibitor) is listed as “no decomposition of trypsin was observed”.

Values taken from patent US20240408170A1, “COMPOSITION FOR DECOMPOSITION OF TRYPSIN OR TMPRSS2” (Riken, priority 2021, published 2024).
